These results are taken from patent US9119821B2, “Use of methionine sulfoximine to treat acute liver failure and other diseases caused by an inflammatory cytokine response” (priority 2010, dated 2015).

Structures are written as SMILES.

Experiment [1] deals with T1, glutamine synthetase (Mus musculus, UniProt P15105).
T1 construct: liver homogenates were prepared from liver tissue excised and immediately homogenized; from tissue; host or cells: mouse liver homogenate supernatant
The experiment in a line: Glutamine synthetase activity in liver extracts of treated mice. Format: in vivo. The following applies: 890 mg/kg IP 3 hours prior to LPS/D-GalN. As for the experimental part: Tissue and plasma were collected from male mice, which were divided into two groups. One group was injected with saline three hours prior to LPS/D-GalN injections. The second group was given MSO three hours prior to being injected with LPS/D-GalN. Control mice (t=0) were treated with MSO or saline for 3 hours and then euthanized (not exposed to LPS/D-GalN). After LPS/D-GalN injection at time zero, tissue and plasma samples were collected at one-hour time intervals from 1 to 5 hours.
To analyze enzyme activities liver homogenates were prepared from liver tissue excised and immediately homogenized in ice-cold buffer consisting of 250 mM sucrose, 10 mM Tris and 0.1 mM EGTA with protease inhibitor cocktail (Sigma #P8340). The homogenized tissue was centrifuged at 2375×g for 5 min. The tissue supernatant fraction was frozen on dry ice and stored at −80° C.
Glutamine synthetase was assayed as described by Meister, A. Glutamine synthetase from mammalian tissues. […] The reaction with the substrates glutamine and hydroxylamine was stopped using ferric chloride stop solution (0.37 M FeCl3, 0.67 M HCl, 0.20 M TCA) and the colorimetric product formed—γ-glutamyl hydroxamate—was measured at 535 nm. The absorbance values were converted to activities by comparison to a standard curve of pure glutamyl hydroxamate (a generous gift from Arthur J. Cooper, Department of Biochemistry and Molecular Biology, New York Medical College).

Experiment [2] deals with MLP 29 cells. The experiment in a line: Flow cytometry of apoptosis induced by TNF-α plus actinomycin D. The following applies: 9 mM, one hour preincubation, then TNF-α plus actinomycin D for 10 hours. Format: cell-based, mouse.
Experimental: Output of multiparametric FACS analyses. Mouse liver progenitor cells, MLP 29, are incubated for one hour with either no addition (first lane, FIG. 3C(a)), 9 mM MSO (second lane, FIG. 3C(b)), or 9 mM BSO (third lane, FIG. 3C(c)), then exposed for 10 hours to either no addition—(BAS, first column), TNF-α plus actinomycin D (second column), or actinomycin D alone (third column). Viable cells (V) are delimited by the quadrant. Apoptotic cells display mitochondrial depolarization (reduced TMRM staining) and/or expose phosphatidylserine on their surface (increased Annexin V-FITC staining). Propidium iodide-positive, i.e. dead cells (PI), are evaluated on a PI vs TMRM diagram (not shown); these cells are excluded from the reported plots, but the percentage of propidium iodide positive (i.e. dead) cells is shown in each box (PI), as is the percentage of viable cells (V);
Samples were analyzed on a FACSCalibur flow cytometer (Becton Dickinson, San Diego, Calif.). Data acquisition was performed using CellQuest software and data analysis with WinMD1 software. Each experiment was repeated at least four times.
Experiment [3] deals with CD1 mice treated with LPS/D-GalN. Description: Survival of mice with LPS/D-GalN induced acute liver failure. In kind it is in vivo, mouse. The following applies: 890 mg/kg IP 3 hours prior to LPS/D-GalN. The text has this: Six to eight week old CD1 mice are obtained from Charles River. Animals were housed in Wayne State University or University of Padova, Vallisneri Interdepartmental Complex animal quarters until the time of the experiment. Food was withdrawn the night before the day of the experiment. All experiments were approved by the Animal Investigation Committee of Wayne State University or by the Authority of the University of Padova and authorized by the Italian Ministry of Health.
Animals were divided into two groups. Group one animals consisted of both male and female mice injected with LPS and D-GalN to induce hepatic failure. Survival was monitored post LPS/D-GalN administration and the time of injection was considered to be zero hour (t=0). Group two animals consisted of mice injected with MSO three hours prior to LPS and D-GalN administration. […] […] For analysis of the effect of MSO treatment on the cell death pathway activated by the Fas ligand, mice were pre-treated with MSO as described above, and at time zero were injected with Jo2 antibody ([…]).
Animals were monitored continuously post LPS/D-GalN or Jo2 administration. […] The time of death was recorded as hours after LPS/D-GalN injection. Fisher's exact test was used to determine two-tailed p values for the statistical between the treated and untreated groups.

The target of experiment [4] is T2, GGCS (Homo sapiens, UniProt P48506).
T2 sequence (P48506 1-637): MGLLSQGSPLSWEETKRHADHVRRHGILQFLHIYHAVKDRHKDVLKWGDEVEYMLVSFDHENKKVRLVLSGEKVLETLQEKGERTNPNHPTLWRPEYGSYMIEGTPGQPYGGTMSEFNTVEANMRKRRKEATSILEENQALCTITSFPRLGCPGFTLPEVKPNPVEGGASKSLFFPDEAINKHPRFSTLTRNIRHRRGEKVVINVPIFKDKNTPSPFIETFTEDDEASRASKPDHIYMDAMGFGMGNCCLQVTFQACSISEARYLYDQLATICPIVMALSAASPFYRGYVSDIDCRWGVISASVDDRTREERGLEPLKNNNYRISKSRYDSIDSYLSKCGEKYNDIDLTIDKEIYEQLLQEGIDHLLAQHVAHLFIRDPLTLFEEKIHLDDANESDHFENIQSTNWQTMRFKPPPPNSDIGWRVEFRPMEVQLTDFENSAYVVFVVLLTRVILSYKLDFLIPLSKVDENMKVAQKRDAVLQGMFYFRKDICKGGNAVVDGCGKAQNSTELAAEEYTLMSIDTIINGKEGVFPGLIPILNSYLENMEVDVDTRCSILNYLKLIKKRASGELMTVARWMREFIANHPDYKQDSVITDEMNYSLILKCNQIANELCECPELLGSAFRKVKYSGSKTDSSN
The settings on record: known from the literature; cited from earlier work.

T1 sequence (P15105 2-373 limits assumed): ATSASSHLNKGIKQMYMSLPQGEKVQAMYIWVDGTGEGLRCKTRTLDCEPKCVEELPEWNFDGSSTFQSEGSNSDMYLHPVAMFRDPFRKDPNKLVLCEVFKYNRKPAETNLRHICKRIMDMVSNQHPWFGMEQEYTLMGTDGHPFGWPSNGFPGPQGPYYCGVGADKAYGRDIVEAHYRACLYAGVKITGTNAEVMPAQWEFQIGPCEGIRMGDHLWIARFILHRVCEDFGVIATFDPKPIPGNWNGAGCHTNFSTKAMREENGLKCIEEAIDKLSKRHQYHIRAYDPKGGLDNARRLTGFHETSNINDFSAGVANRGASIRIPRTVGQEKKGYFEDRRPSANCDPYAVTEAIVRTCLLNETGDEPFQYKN

Turning to `CCCCS(=N)(=O)CCC(N)C(=O)O` (centres unmarked) [BSO, buthionine sulfoximine, reference compound], the “effect on glutamine synthetase activities” value in experiment [1] was “no effect”. For the same molecule, the “rescue of cells from apoptosis induced by TNF-α” value in experiment [2] is recorded as “neither MSO nor BSO could rescue cells”. Further, the “effect on survival of mice treated with LPS/D-GalN” value in experiment [3] is on record as “no effect”. The molecule also registered a survival in experiment [3] (3 out of 20 treated mice survived) of 15%. The “inhibition of GGCS, effectiveness relative to MSO” value in experiment [4] was 100 times.
